# From patent US6255285A, “Phenethylamine derivatives” (Chugai Seiyaku Kabushiki Kaisha, priority 1997, dated 2001)
# Square brackets hold non-standard residues; d marks the D form. Peptide text beside a SMILES is read from it. Tyr(3-tBu) = CC(C)(C)c1cc(C[CH](N)C(=O)O)ccc1O; Phg = N[CH](C(=O)O)c1ccccc1
# Assays:
# [1] = system: motilin-induced contraction of a specimen of longitudinal muscle in the duodenum extracted from a rabbit; assay: Contraction suppressing test: action on motilin-induced contraction of duodenum longitudinal muscle specimen; assay type: cell-based; conditions: rabbit duodenum specimen in organ bath, Krebs solution 28° C.; effect on dose-dependent contraction by motilin
# Procedure: Action on the Contraction of a Specimen of Longitudinal Muscle in the Duodenum Extracted from a Rabbit
# The action on the motilin-induced contraction of a specimen of longitudinal muscle in the duodenum extracted from a rabbit was investigated by the following method. A duodenum specimen extracted from a slaughtered rabbit (3×10 mm) was suspended in an organ bath (10 ml) such that the longitudinal muscle would run vertically; the bath was filled with a Krebs solution kept at 28° C. A mixed gas (95% O2 and 5% CO2) was continuously bubbled into the Krebs solution and the contraction of the duodenum specimen was recorded isotonically (with a 1-g load) via an isotonic transducer (TD-111T of Nihon Koden, K.K.) The degree of contraction was expressed in relative values, with the contraction by acetylcholine at a dose of 10^-4 M being taken as 100%. The activity of each compound was calculated as pA2 value indicating its effect on the dose-dependent muscle contraction by the motilin put into the organ bath.
# motilin receptor = molecular target: T1, motilin receptor (Oryctolagus cuniculus, UniProt G1T803); assay: Motilin receptor binding test; conditions: rabbit duodenum homogenate, 125I motilin 25 pM; concentration reducing specific binding by 50%
# T1 construct: had the mucous membrane separated and homogenized in 50 mM Tris-HCl buffer to prepare a receptor sample; from tissue; host or cells: rabbit duodenum with the mucosa removed, homogenate
# T1 sequence (G1T803 1-400): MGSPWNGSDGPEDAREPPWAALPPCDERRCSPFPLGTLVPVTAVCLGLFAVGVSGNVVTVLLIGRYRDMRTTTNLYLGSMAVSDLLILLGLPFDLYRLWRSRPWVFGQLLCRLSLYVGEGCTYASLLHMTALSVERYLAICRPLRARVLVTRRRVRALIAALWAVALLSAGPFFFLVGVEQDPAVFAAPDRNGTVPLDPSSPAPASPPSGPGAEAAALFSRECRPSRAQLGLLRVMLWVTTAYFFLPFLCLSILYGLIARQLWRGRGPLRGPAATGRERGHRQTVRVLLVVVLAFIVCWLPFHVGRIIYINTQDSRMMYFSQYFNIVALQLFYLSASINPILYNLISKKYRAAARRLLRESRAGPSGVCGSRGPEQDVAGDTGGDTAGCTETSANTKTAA
# Procedure: Motilin Receptor Binding Test
# A motilin receptor binding test was conducted in the following manner [Bormans et al., Regul. Peptides, 15, 143 (1986)]. The duodenum was extracted from a slaughtered rabbit, had the mucous membrane separated and homogenized in 50 mM Tris-HCl buffer to prepare a receptor sample. The sample was incubated together with ^125 I motilin 25 pM and thereafter the radioactivity bound to the receptor was measured. Specific binding was defined as the difference between the radioactivity in the case of adding 1% DMSO in place of the compounds of the examples and that in the case of adding a great excess amount of motilin (10^-7 M). The activity of each compound was expressed by IC50 (in nM), as the concentration sufficient to reduce the specific binding by 50%.
IC50 (motilin receptor) [nM],Structure (SMILES),"Contraction suppressing test, pA2 [1]"
12,"CC(C)(C)c1cc(CC(NC(=O)C(NC(=O)C(N)Cc2ccccc2)c2ccccc2)C(N)=O)ccc1O (stereo not drawn) [Example 5, Phe-Phg-Tyr(3-tBu)-NH2] (H-Phe-[Phg]-[Tyr(3-tBu)]-NH2; configuration not given here)",7.81
3.7,"CN(C(=O)C(N)Cc1ccccc1)C(C(=O)NC(Cc1ccc(O)c(C(C)(C)C)c1)C(N)=O)c1ccccc1 [Example 18B, Phe-N-Me-D-Phg-Tyr(3-tBu)-NH2]",8.58
1.9,"CC(Cc1ccc(O)c(C(C)(C)C)c1)NC(=O)C(C(C)C)N(C)C(=O)[C@@H](N)Cc1ccccc1 (some centres unmarked) [Example 118, N-[2-(3-tert-butyl-4-hydroxyphenyl)-1-methylethyl]-3-methyl-2-(N-methyl-N-phenylalanylamino)butanamide]",8.43
4.3,"CC(C)[C@@H](C(=O)N(C)[C@@H](Cc1ccc(O)c(C(C)(C)C)c1)C(N)=O)N(C)C(=O)[C@@H](N)Cc1ccccc1 [Example 119, Phe-N-Me-Val-N-Me-Tyr(3-tBu)-NH2] (HELM PEPTIDE1{F.[meV].[CN([C@@H](Cc1ccc(O)c(C(C)(C)C)c1)C(=O)[*:2])[*:1]].[am]}$$$$V2.0)",8.59
